Laboratory results from patent publication US9937250B2, “Immunogenic tumor associated stromal cell antigen peptides and methods of their use” (University of Pittsburgh—Of the Commonwealth System of …, priority 2011, dated 2018).

Experiments:
[1] = test system: CD8+ T cells from HLA-A2+ normal donors or HLA-A2+ melanoma patients; experiment: In vitro sensitization of human CD8+ T cells with TASA peptide-pulsed autologous DC, IFN-γ ELISA against peptide-pulsed T2 cells; assay type: cell-based; details: response = IFN-γ >30 pg/ml and >2 fold HIV-nef control; for Specific CD8+ T Cell Response, HLA-A2+ Normal Donors (of 8): number of responding donors of 8; for Specific CD8+ T Cell Response, HLA-A2+ Melanoma Patients (of 10): number of responding patients of 10
Experimental: The indicated peptides were pulsed onto autologous DC and used to prime and boost CD8^+ T cells isolated from the peripheral blood of eight normal HLA-A2^+ donors or ten HLA-A2^+ patients with melanoma. Seven days after the primary in vitro sensitization (IVS) (melanoma patients) or a secondary IVS boost (normal donors), T cells were analyzed for their reactivity against HLA-A2^+ T2 cells pulsed with the relevant peptide vs. the negative control HIV-nef190-198 peptide. After 24 hours of co-culture, cell-free supernatants were analyzed for levels of secreted IFN-γ using a commercial ELISA. Data are reported in Bar and Whisker plots, with p-values provided for paired pre- versus post-IVS data from normal donors and patients. In addition, p<0.05 was detected for MEL-Post versus ND-Post for the following peptides: DLK1 (309), NG2 (770), NG2 (2238), PDGFRβ (891) and RGS5 (5).
In vitro assessment of human CD8^+ T cell responses against TASA- or TAA-derived peptides. Peripheral blood mononuclear cells (PBMC) were obtained by venipuncture or leukapheresis from HLA-A2^+ normal donors or HLA-A2^+ melanoma patients with written consent under IRB-approved protocols (Table 3). CD8^+ T cells were then isolated by MACS (Miltenyi Biotec, Auburn, Calif.) and either not stimulated or stimulated with autologous, TASA peptide-pulsed DC as previously described (Tatsumi et al., Cancer Res., 63:4481-4489, 2003). Normal donor T cells were stimulated with TASA peptide-pulsed DC twice on a weekly schedule, with responder T cells harvested for analysis of their specificity 5 days after the booster stimulation (i.e. day 12 of T cell-DC co-culture). Melanoma patient CD8^+ T cells were analyzed after a single round of stimulation with TASA peptide-pulsed, autologous DC (i.e. day 5 of T cell-DC co-culture) as indicated. For DC-based stimulations, DC were pulsed with an equimolar (1 μM each) pool of the TASA peptides (Table 4) for 4 h at 37° C. at 5% CO2 tension. These antigen-loaded DC were then used to stimulate autologous CD8^+ T cells at a T cell-to-DC ratio of 10:1 to generate a bulk population of responder T cells. T cells were maintained in IMDM media supplemented with 10% human AB serum, 100 U/ml penicillin, […], 10 mM L-glutamine and MEM non-essential amino acids (all reagents from Invitrogen, except human AB serum that was purchased from Sigma-Aldrich, St. Louis, Mo.). Responder CD8^+ T cells were analyzed for reactivity against control (HLA-A2^+) T2 cells or T2 cells pulsed with individual TASA or TAA peptides (1 μM for 4 h at 37° C.) at a CD8^+ T cell-to-T2 cell ratio of 5:1 for 24 h. Harvested cell-free supernatants were consequently assessed for hIFN-γ content using a specific ELISA (BD Biosciences, San Diego, Calif.) with a lower detection limit of 4.7 pg/ml.
CD8^+ T cells from HLA-A2^+ normal donors or HLA-A2^+ melanoma patients recognize TASA-derived peptides in vitro. To assess whether the TASA-derived peptides identified in the HHD tumor model were also capable of being recognized by human CD8^+ T cells, IVS was performed using T cells isolated from the peripheral blood of HLA-A2^+ donors or HLA-A2^+ patients with melanoma. DC were pulsed with peptides derived from a given TASA for 4 h at 37° C., then washed and used as stimulator cells for autologous CD8^+ T cells. In cases where more than one peptide existed for a given protein, DC were pulsed with an equimolar (10 μM) mixture of each peptide. Two rounds of IVS using TASA for normal donors and a single-round of IVS using TASA for melanoma patients was applied. HLA-A2^+ normal donors (FIG. 4; Tables 4, 5A and 5B) and melanoma patients (FIG. 4; Tables 4, 5A and 5B) were each capable of recognizing many of the TASA-derived peptides.

CD8+ splenocytes = experiment: Tc1 response to DC.IL12/peptide vaccination (splenic CD8+ T cell IFN-γ ELISA against peptide-pulsed T2 cells); assay type: in vivo, HHD mice; details: DC.IL12 pulsed with peptide(s), two s.c. vaccinations; versus DC only
Excerpt: FIGS. 9A-9B show a series of graphs illustrating induction of specific/protective CD8^+ T cells reactive against TASA as a consequence of DC/peptide-based vaccination. In FIG. 9A, HHD mice (five animals/cohort) were vaccinated twice (d-14, d-7) subcutaneously with PBS or with isologous DC.IL12 pulsed with PBS or synthetic peptides (Table 6) derived from the indicated TASA. In cases where more than 1 peptide was identified for a given target antigen, an equimolar pool of the indicated peptides (each 10 μM) was pulsed onto DC.IL12 and used for vaccination in the relevant cohort. One week after the second immunization, spleens were harvested and splenic CD8^+ T cells isolated using MACS-beads (Miltenyi). T cells were stimulated in vitro for 48 h using the HLA-A2^+ T2 cell line pulsed with relevant TASA vs. irrelevant HIV-nef190-198 ([…]; ref. 24) peptides. Cell-free supernatants were then recovered and IFN-γ levels by ELISA. Data are reported as mean+/−SD for triplicate ELISA determinations, and are representative of 3 independent experiments performed. *p<0.05 vs. HIV-nef control peptide responses. In FIG. 9B, HHD mice were vaccinated twice (days −14 and −7; right flank) subcutaneously with PBS or with isologous DC.IL12 pulsed with PBS or synthetic TASA peptides as indicated in FIG. 1A. In cases where more than 1 peptide is identified for a given target antigen, an equimolar pool of the indicated peptides (each 10 μM) was pulsed onto DC.IL12 and used for vaccination in the relevant cohort. One week after the booster vaccine (i.e. day zero), animals were challenged subcutaneously on their left flank with 2×10^6 MC38 colon carcinoma cells. Tumor growth was then monitored every 3-4 days through day 24. All data represent mean tumor area (in mm^2)+/−SD determined from 5 mice/cohort, and are representative of three independent experiments performed. *p<0.05 versus DC only on the indicated days.
Vaccine Experiments. For prophylactic experiments, HHD mice were immunized subcutaneously on the right flank with 100 μl PBS or PBS containing 10^6 syngenic DC.IL12 cells that had been untreated or pre-pulsed for 4 h at 37° C. with 10 μM synthetic peptide(s). Immunizations occurred on days −14 and −7, with mice subsequently receiving injections of MC38 (2×10^6) tumor cells in the left flank on d0. In all cases, treatment groups contained 5 mice per cohort. For analysis of tumor cellular composition in repeat experiments, MC38 tumors were isolated by surgical resection 10 days after tumor inoculation and prepared for fluorescence imaging, as described below. […] Mice were then untreated or treated with control, syngenic DC.IL12 or DC.IL12 (10^6 cells injected subcutaneously in the left flank on days 7 and 14) pulsed with synthetic TBVA peptides. In some assays, as indicated, in vivo antibody depletions (on days 6, 13 and 20 post-tumor inoculation to assess early involvement or on days 60 and 67 or 180 and 187 to assess late involvement) of protective CD4^+ T cells or CD8^+ T cells were performed and monitored as previously described (Zhao et al., Mol Ther., 19:805-814, 2011). In all cases, tumor size (area) was monitored every 3-4 days and is reported as mean+/−SD in mm^2.
Evaluation of Specific CD8^+ T Cell Responses in HHD Mice. MACS (Miltenyi Biotec) CD8^+ splenocytes were harvested (from 3 mice/group) 7 days after the second round of DC-based vaccination (i.e. day 21 after tumor inoculation) and analyzed for reactivity against unpulsed T2 cells, TBVA peptide-pulsed T2 cells, or day 19 (flow-sorted) B16-derived PDGFRβ^+CD31^negH-2K^b(neg) pericytes or PDGFRβ^negCD31^+H-2K^b(neg) VEC isolated as previously described (Zhao et al., Mol Ther., 19:805-814, 2011). Where indicated, 10 μg of anti-HLA-A2 mAb BB7.2 or control anti-class II mAb L243 (both from ATCC, Manassas, Va.) were added to replicate co-culture wells. After 48 h, supernatants were analyzed for mIFN-γ content by specific ELISA (BD-Biosciences; lower detection limit=31.3 pg/ml). […]

Sequence | Specific CD8+ T Cell Response, HLA-A2+ Normal Donors (of 8) [1] | Specific CD8+ T Cell Response, HLA-A2+ Melanoma Patients (of 10) [1] | Tc1 Response to Peptide Vaccine (HHD) (CD8+ splenocytes)
DIWDGIPHV (listed as Homo sapiens) | 0 | 4 | + (+, p < 0.05 versus DC only)
FLNKCETWV (listed as Homo sapiens) | 2 | 4 | + (+, p < 0.05 versus DC only)
GLLRFVTAV (listed as Homo sapiens) | 2 | 7 | + (+, p < 0.05 versus DC only)
GMLGMVSGL (listed as Homo sapiens) | 2 | 7 | + (+, p < 0.05 versus DC only)
ILGVLTSLV (listed as Homo sapiens) | 2 | 6 | + (+, p < 0.05 versus DC only)
ILLWEIFTL (listed as Homo sapiens) | 2 | 1 | + (+, p < 0.05 versus DC only)
LILPLLFYL (listed as Homo sapiens) | 0 | 4 | + (+, p < 0.05 versus DC only)
LLQERGVAYI (listed as Homo sapiens) | 0 | 2 | + (+, p < 0.05 versus DC only)
LLVPTCVFLV (listed as Homo sapiens) | 4 | 4 | + (+, p < 0.05 versus DC only)
NMLGMLSGL (listed as Homo sapiens) | 0 | 0 | 
RLLGNVLVCV (listed as Homo sapiens) | 1 | 1 | + (+, p < 0.05 versus DC only)
RLLVVYPWT (listed as Homo sapiens) | 2 | 6 | + (+, p < 0.05 versus DC only)
RLTPGVHEL (listed as Homo sapiens) | 1 | 4 | + (+, p < 0.05 versus DC only)
TLADFDPRV (listed as Homo sapiens) | 2 | 6 | + (+, p < 0.05 versus DC only)
TLFWLLLTL (listed as Homo sapiens) | 1 | 3 | + (+, p < 0.05 versus DC only)
TLSNLSFPV (listed as Homo sapiens) | 0 | 4 | 
VIAMFFWLL (listed as Homo sapiens) | 0 | 0 | + (+, p < 0.05 versus DC only)
VLLGAVCGV (listed as Homo sapiens) | 2 | 1 | + (+, p < 0.05 versus DC only)
YLQVDLRFL (listed as Homo sapiens) | 0 | 4 | 
